Where two headings read alike, the source gives them in different places. *1 amine or outer side, *2 acyl side, *3 side chain or, on linkers, in order; H or OH if unused. Where a SMILES comes first, the peptide text is derived from it. Side-chain parts run from the residue outwards. [ ]: non-standard residue; d: D form. The star is where a group is joined. C20 diacid = O=C(O)CCCCCCCCCCCCCCCCCCC(=O)*; C18 diacid = O=C(O)CCCCCCCCCCCCCCCCC(=O)*; γGlu = O=C(O)[C@H](CCC(=O)[*:2])N[*:1]; AEEA = NCCOCCOCC(=O)O; Aib = CC(C)(N)C(=O)O
Assays:
[1] = biological target: T1, human GIP R (Homo sapiens, UniProt P48546); experiment: Human GIP receptor (GIP R) activity assay, cAMP induction (AlphaScreen) in HEK293 cells; format: cell-based; settings: Table 3; most comprehensive data; read-out: hGIP-R cAMP EC50 average value
T1 construct: expressed in transfected cells
T1 sequence (P48546 22-466): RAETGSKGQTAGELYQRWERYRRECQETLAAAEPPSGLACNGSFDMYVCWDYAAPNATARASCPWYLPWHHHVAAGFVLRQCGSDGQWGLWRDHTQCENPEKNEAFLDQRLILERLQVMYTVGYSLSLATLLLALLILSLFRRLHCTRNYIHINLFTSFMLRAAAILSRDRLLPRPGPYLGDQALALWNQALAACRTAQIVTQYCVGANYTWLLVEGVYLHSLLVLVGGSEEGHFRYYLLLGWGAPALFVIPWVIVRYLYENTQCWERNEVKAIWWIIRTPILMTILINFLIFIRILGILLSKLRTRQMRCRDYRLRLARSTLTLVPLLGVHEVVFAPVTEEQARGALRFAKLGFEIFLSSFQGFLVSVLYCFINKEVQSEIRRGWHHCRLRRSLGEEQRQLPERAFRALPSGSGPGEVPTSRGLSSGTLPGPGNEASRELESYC
Experimental: (§1) Human GIP Receptor (GIP R) and GLP-1 Receptor (GLP-1 R) Activity Assay
(§2) In vitro effects of peptide conjugates of the invention were assessed by measuring the induction of cAMP following stimulation of the respective receptor by GIP, GLP1 or analogues of these, as outlined in the invention, using the AlphaSceen® cAMP kit from Perkin-Elmer according to instructions. Briefly, HEK293 cells expressing the human GIP R or GLP-1 R (stable cell lines generated through transfection of the cDNA for human GIP R or GLP-1 and selection of stable clones) were seeded at 30,000 cells/well in 96-well microtiter plates coated with 0.01% poly-L-lysine, and grown for 1 day in culture in 200 μl growth medium (DMEM, 10% FCS, Penicillin (100 IU/ml), Streptomycin (100 μg/ml)). On the day of analysis, growth medium was removed and the cells were washed once with […] Tyrode's buffer (Tyrode's Salts (9.6 g/l), 10 mM HEPES, pH 7.4). […] The Assay buffer was removed and cells are lysed in 80 μl Lysis buffer (0.1% w/v BSA, 5 mM HEPES, 0.3% v/v Tween-20) per well. From each well 10 μl lysed cells was transferred to a 384-well plate and mixed with 15 μl bead-mix (1 Unit/15 μl anti-cAMP Acceptor Beads, 1 Unit/15 μl Donor Beads, and 1 Unit/15 μl Biotinylated cAMP in Assay Buffer). The plates were mixed and incubated in the dark for an hour at room temperature before measuring using an Envision™ plate reader (Perkin-Elmer).
(§3) The resulting cAMP curves were plotted as absolute cAMP concentrations (nM) over log (test compound concentration) and analyzed using the curve fitting program XLfit.
(§4) Parameters calculated to describe both the potency as well as the agonistic activity of each test compound on the receptors were:
(§5) EC50, a concentration resulting in a half-maximal elevation of cAMP levels, reflecting the potency of the test compound.

[2] = biological target: T2, human GLP-1 R (Homo sapiens, UniProt P43220); experiment: Human GLP-1 receptor (GLP-1 R) activity assay, cAMP induction (AlphaScreen) in HEK293 cells; format: cell-based
T2 construct: expressed in transfected cells
T2 sequence (P43220 24-463): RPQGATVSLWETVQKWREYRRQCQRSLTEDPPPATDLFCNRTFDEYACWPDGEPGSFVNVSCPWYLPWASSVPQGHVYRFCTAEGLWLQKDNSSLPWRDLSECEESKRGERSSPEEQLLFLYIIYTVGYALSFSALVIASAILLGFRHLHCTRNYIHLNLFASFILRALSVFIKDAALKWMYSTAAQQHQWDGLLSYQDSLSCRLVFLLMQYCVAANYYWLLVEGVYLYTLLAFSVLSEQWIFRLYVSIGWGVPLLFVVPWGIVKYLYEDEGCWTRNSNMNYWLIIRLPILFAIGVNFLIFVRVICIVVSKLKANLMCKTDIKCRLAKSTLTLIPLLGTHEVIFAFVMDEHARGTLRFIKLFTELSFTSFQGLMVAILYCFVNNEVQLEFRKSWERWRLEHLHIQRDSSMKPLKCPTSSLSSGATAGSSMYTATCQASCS
Experimental: as §1, §2, §3, §4, §5

[3] = Table 3, most comprehensive data, read-out: hGLP-1-R cAMP EC50 average value

EC50 ([2]; Table 2, HEK293 cells expressing human GLP-1 R, read-out: hGLP1-R cAMP EC50 average value) [pM]	SMILES	EC50 [1] [pM]	EC50 [2, 3] [pM]
11	CC[C@H](C)[C@H](NC(=O)[C@H](CO)NC(=O)[C@H](CC(C)C)NC(=O)[C@H](CC(=O)O)NC(=O)[C@H](CO)NC(=O)[C@@H](NC(=O)[C@H](Cc1ccccc1)NC(=O)[C@@H](NC(=O)CNC(=O)[C@H](CCC(=O)O)NC(=O)C(C)(C)NC(=O)[C@@H](N)Cc1ccc(O)cc1)[C@@H](C)O)[C@@H](C)O)C(=O)N[C@@H](C)C(=O)N[C@@H](CC(C)C)C(=O)N[C@@H](CCC(=O)O)C(=O)N[C@@H](CCCCN)C(=O)N[C@@H](CCCCNC(=O)COCCOCCNC(=O)COCCOCCNC(=O)CC[C@H](NC(=O)CCCCCCCCCCCCCCCCC(=O)O)C(=O)O)C(=O)N[C@@H](C)C(=O)N[C@@H](CCC(N)=O)C(=O)N[C@@H](CCCNC(=N)N)C(=O)N[C@@H](C)C(=O)N[C@@H](Cc1ccccc1)C(=O)N[C@H](C(=O)N[C@@H](CCC(=O)O)C(=O)N[C@@H](Cc1c[nH]c2ccccc12)C(=O)N[C@@H](CC(C)C)C(=O)N[C@@H](CCC(=O)O)C(=O)N[C@@H](C)C(=O)N[C@@H](CCC(N)=O)C(=O)N[C@@H](CCCCN)C(N)=O)C(C)C [Compound 24] (H-Y[Aib]EGTFTSDLSIALEKK([AEEA-AEEA-γGlu-C18 diacid])AQRAFVEWLEAQK-NH2)	260	
	CC[C@H](C)[C@H](NC(=O)[C@H](CO)NC(=O)[C@H](Cc1ccc(O)cc1)NC(=O)[C@H](CC(=O)O)NC(=O)[C@H](CO)NC(=O)[C@@H](NC(=O)[C@H](Cc1ccccc1)NC(=O)[C@@H](NC(=O)CNC(=O)[C@H](CCC(=O)O)NC(=O)C(C)(C)NC(=O)[C@@H](N)Cc1ccc(O)cc1)[C@@H](C)O)[C@@H](C)O)C(=O)N[C@@H](Cc1ccc(O)cc1)C(=O)N[C@@H](CC(C)C)C(=O)N[C@@H](CC(=O)O)C(=O)N[C@@H](CCCCN)C(=O)N[C@@H](CCCCNC(=O)COCCOCCNC(=O)COCCOCCNC(=O)CCCCCCCCCCCCCCCCCCC(=O)O)C(=O)N[C@@H](C)C(=O)N[C@@H](CCC(N)=O)C(=O)N[C@@H](CCCNC(=N)N)C(=O)N[C@@H](C)C(=O)N[C@@H](Cc1ccccc1)C(=O)N[C@H](C(=O)N[C@@H](CCC(=O)O)C(=O)N[C@@H](Cc1c[nH]c2ccccc12)C(=O)N[C@@H](CC(C)C)C(=O)N[C@@H](CC(C)C)C(=O)N[C@@H](C)C(=O)N[C@@H](CCC(N)=O)C(=O)NCC(=O)N1CCC[C@H]1C(=O)N[C@@H](CO)C(=O)N[C@@H](CO)C(=O)NCC(=O)N[C@@H](C)C(=O)N1CCC[C@H]1C(=O)N1CCC[C@H]1C(=O)N1CCC[C@H]1C(=O)N[C@@H](CO)C(N)=O)C(C)C [Compound 35] (H-Y[Aib]EGTFTSDYSIYLDKK([AEEA-AEEA-C20 diacid])AQRAFVEWLLAQGPSSGAPPPS-NH2)	16	12
	CC[C@H](C)[C@H](NC(=O)[C@H](CO)NC(=O)[C@H](Cc1ccc(O)cc1)NC(=O)[C@H](CC(=O)O)NC(=O)[C@H](CO)NC(=O)[C@@H](NC(=O)[C@H](Cc1ccccc1)NC(=O)[C@@H](NC(=O)CNC(=O)[C@H](CCC(=O)O)NC(=O)C(C)(C)NC(=O)[C@@H](N)Cc1ccc(O)cc1)[C@@H](C)O)[C@@H](C)O)C(=O)N[C@@H](Cc1ccc(O)cc1)C(=O)N[C@@H](CC(C)C)C(=O)N[C@@H](CC(=O)O)C(=O)N[C@@H](CCCCN)C(=O)N[C@@H](CCCCNC(=O)COCCOCCNC(=O)COCCOCCNC(=O)CC[C@H](NC(=O)CCCCCCCCCCCCCCCCCCC(=O)O)C(=O)O)C(=O)N[C@@H](C)C(=O)N[C@@H](CCC(N)=O)C(=O)N[C@@H](CCCNC(=N)N)C(=O)N[C@@H](CCC(=O)O)C(=O)N[C@@H](Cc1ccccc1)C(=O)N[C@H](C(=O)N[C@@H](CCC(=O)O)C(=O)N[C@@H](Cc1c[nH]c2ccccc12)C(=O)N[C@@H](CC(C)C)C(=O)N[C@@H](CC(C)C)C(=O)N[C@@H](C)C(=O)N[C@@H](CCC(N)=O)C(=O)NCC(=O)N1CCC[C@H]1C(=O)N[C@@H](CO)C(=O)N[C@@H](CO)C(=O)NCC(=O)N[C@@H](C)C(=O)N1CCC[C@H]1C(=O)N1CCC[C@H]1C(=O)N1CCC[C@H]1C(=O)N[C@@H](CO)C(N)=O)C(C)C [Compound 46] (H-Y[Aib]EGTFTSDYSIYLDKK([AEEA-AEEA-γGlu-C20 diacid])AQREFVEWLLAQGPSSGAPPPS-NH2)	6	10
	CC[C@H](C)[C@H](NC(=O)[C@H](CO)NC(=O)[C@H](Cc1ccc(O)cc1)NC(=O)[C@H](CC(=O)O)NC(=O)[C@H](CO)NC(=O)[C@@H](NC(=O)[C@H](Cc1ccccc1)NC(=O)[C@@H](NC(=O)CNC(=O)[C@H](CCC(=O)O)NC(=O)C(C)(C)NC(=O)[C@@H](N)Cc1ccc(O)cc1)[C@@H](C)O)[C@@H](C)O)C(=O)N[C@@H](C)C(=O)N[C@@H](CC(C)C)C(=O)N[C@@H](CC(=O)O)C(=O)N[C@@H](CCCCN)C(=O)N[C@@H](CCCCNC(=O)COCCOCCNC(=O)COCCOCCNC(=O)CC[C@H](NC(=O)CCCCCCCCCCCCCCCCCCC(=O)O)C(=O)O)C(=O)N[C@@H](C)C(=O)N[C@@H](CCC(N)=O)C(=O)N[C@@H](CCCNC(=N)N)C(=O)N[C@@H](C)C(=O)N[C@@H](Cc1ccccc1)C(=O)N[C@H](C(=O)N[C@@H](CCC(=O)O)C(=O)N[C@@H](Cc1c[nH]c2ccccc12)C(=O)N[C@@H](CC(C)C)C(=O)N[C@@H](CC(C)C)C(=O)N[C@@H](C)C(=O)N[C@@H](CCC(N)=O)C(=O)NCC(=O)N1CCC[C@H]1C(=O)N[C@@H](CO)C(=O)N[C@@H](CO)C(=O)NCC(=O)N[C@@H](C)C(=O)N1CCC[C@H]1C(=O)N1CCC[C@H]1C(=O)N1CCC[C@H]1C(=O)N[C@@H](CO)C(N)=O)C(C)C [Compound 42] (H-Y[Aib]EGTFTSDYSIALDKK([AEEA-AEEA-γGlu-C20 diacid])AQRAFVEWLLAQGPSSGAPPPS-NH2)	9	17
	CC[C@H](C)[C@H](NC(=O)[C@H](CO)NC(=O)[C@H](Cc1ccc(O)cc1)NC(=O)[C@H](CC(=O)O)NC(=O)[C@H](CO)NC(=O)[C@@H](NC(=O)[C@H](Cc1ccccc1)NC(=O)[C@@H](NC(=O)CNC(=O)[C@H](CCC(=O)O)NC(=O)C(C)(C)NC(=O)[C@@H](N)Cc1ccc(O)cc1)[C@@H](C)O)[C@@H](C)O)C(=O)N[C@@H](C)C(=O)N[C@@H](CC(C)C)C(=O)N[C@@H](CC(=O)O)C(=O)N[C@@H](CCCCN)C(=O)N[C@@H](CCCCNC(=O)COCCOCCNC(=O)COCCOCCNC(=O)CC[C@H](NC(=O)CCCCCCCCCCCCCCCCCCC(=O)O)C(=O)O)C(=O)N[C@@H](C)C(=O)N[C@@H](C)C(=O)N[C@@H](CCCCN)C(=O)N[C@@H](CCC(=O)O)C(=O)N[C@@H](Cc1ccccc1)C(=O)N[C@H](C(=O)N[C@@H](CCC(=O)O)C(=O)N[C@@H](Cc1c[nH]c2ccccc12)C(=O)N[C@@H](CC(C)C)C(=O)N[C@@H](CC(C)C)C(=O)N[C@@H](CO)C(=O)N[C@@H](C)C(=O)NCC(=O)N1CCC[C@H]1C(=O)N[C@@H](CO)C(=O)N[C@@H](CO)C(=O)NCC(=O)N[C@@H](C)C(=O)N1CCC[C@H]1C(=O)N1CCC[C@H]1C(=O)N1CCC[C@H]1C(=O)N[C@@H](CO)C(N)=O)C(C)C [Compound 41] (H-Y[Aib]EGTFTSDYSIALDKK([AEEA-AEEA-γGlu-C20 diacid])AAKEFVEWLLSAGPSSGAPPPS-NH2)	15	38

Source: patent publication US10093713B2, “GIP-GLP-1 dual agonist compounds and methods” (priority 2013, dated 2018)
